# Laboratory results published in publication PMC3073417 (The Journal of neuroscience : the official journal of the …, 2011).
# Molecular target: hTRPA1 (Homo sapiens, UniProt O75762)
# Test: whole-cell patch clamp of HEK293 cells expressing hTRPA1
# Format: cell-based
# Chain of hTRPA1 (O75762 whole entry): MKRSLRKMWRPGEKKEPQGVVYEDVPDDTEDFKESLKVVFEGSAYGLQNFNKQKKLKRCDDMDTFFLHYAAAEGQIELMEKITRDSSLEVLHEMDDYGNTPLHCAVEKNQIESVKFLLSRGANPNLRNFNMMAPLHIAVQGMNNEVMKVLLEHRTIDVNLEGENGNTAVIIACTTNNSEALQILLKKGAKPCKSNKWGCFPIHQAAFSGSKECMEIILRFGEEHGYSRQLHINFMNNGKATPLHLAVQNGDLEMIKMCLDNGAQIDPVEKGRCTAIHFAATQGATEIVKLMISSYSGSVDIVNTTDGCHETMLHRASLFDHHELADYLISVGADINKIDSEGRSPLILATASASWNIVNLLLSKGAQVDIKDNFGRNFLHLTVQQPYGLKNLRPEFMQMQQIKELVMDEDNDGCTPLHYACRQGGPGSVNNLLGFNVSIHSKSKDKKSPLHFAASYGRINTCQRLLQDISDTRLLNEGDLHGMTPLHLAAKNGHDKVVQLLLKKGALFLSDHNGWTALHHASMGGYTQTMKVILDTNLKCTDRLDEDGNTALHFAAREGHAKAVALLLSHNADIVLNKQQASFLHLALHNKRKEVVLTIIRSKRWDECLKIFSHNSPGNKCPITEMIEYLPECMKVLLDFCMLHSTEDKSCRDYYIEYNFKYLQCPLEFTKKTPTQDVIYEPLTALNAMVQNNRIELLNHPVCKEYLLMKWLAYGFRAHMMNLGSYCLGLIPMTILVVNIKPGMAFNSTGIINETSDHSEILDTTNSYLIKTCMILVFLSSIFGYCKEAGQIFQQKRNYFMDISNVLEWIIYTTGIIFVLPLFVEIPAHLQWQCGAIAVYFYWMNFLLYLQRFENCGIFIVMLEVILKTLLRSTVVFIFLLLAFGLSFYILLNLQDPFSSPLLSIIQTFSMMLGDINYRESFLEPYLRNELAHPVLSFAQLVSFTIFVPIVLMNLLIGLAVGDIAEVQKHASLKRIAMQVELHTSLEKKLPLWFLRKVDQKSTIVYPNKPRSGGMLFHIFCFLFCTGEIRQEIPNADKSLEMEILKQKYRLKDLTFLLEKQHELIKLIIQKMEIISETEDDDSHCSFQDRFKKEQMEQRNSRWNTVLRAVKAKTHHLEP
compound,measurement,value
"C/C=C(/C=O)[C@@H](CC=O)CC(=O)OCCc1ccc(O)cc1 [OC, (−)-oleocanthal]",EC50,2.8 µM
